Laboratory results published in the NIST ThermoML archive (doi:10.1021/acs.jced.7b00106).

Conditions: Hot wire method

FC(F)(F)/C=C/Cl [(E)-1-chloro-3,3,3-trifluoroprop-1-ene]
Conditions | thermal conductivity [W/m/K]
362.89 K, 26388 kPa, Liquid | 0.07962
362.94 K, 8395 kPa, Liquid | 0.06981
362.97 K, 8410 kPa, Liquid | 0.06989
363.01 K, 5513 kPa, Liquid | 0.06793
363.02 K, 5522 kPa, Liquid | 0.06801
363.04 K, 15375 kPa, Liquid | 0.07401
363.05 K, 588 kPa, Fluid (supercritical or subcritical phases) | 0.01642
363.05 K, 3030 kPa, Liquid | 0.06616
363.06 K, 3018 kPa, Liquid | 0.06615
363.06 K, 18623 kPa, Liquid | 0.07592
363.07 K, 781 kPa, Liquid | 0.06438
363.07 K, 11657 kPa, Liquid | 0.07182
363.07 K, 11679 kPa, Liquid | 0.07186
363.07 K, 15350 kPa, Liquid | 0.07393
363.07 K, 18631 kPa, Liquid | 0.07609
363.08 K, 794 kPa, Liquid | 0.06441
363.17 K, 485 kPa, Fluid (supercritical or subcritical phases) | 0.01636
363.25 K, 8386 kPa, Liquid | 0.0699
363.25 K, 8410 kPa, Liquid | 0.06983
363.28 K, 18567 kPa, Liquid | 0.07546
363.3 K, 5515 kPa, Liquid | 0.0679
363.3 K, 15333 kPa, Liquid | 0.0739
363.3 K, 18619 kPa, Liquid | 0.07574
363.31 K, 369 kPa, Fluid (supercritical or subcritical phases) | 0.01625
363.31 K, 5517 kPa, Liquid | 0.06789
363.32 K, 15362 kPa, Liquid | 0.07394
363.34 K, 11659 kPa, Liquid | 0.07179
363.35 K, 3013 kPa, Liquid | 0.06606
363.35 K, 11674 kPa, Liquid | 0.07181
363.36 K, 3021 kPa, Liquid | 0.06613
363.38 K, 789 kPa, Liquid | 0.06433
363.39 K, 791 kPa, Liquid | 0.06436
363.56 K, 18588 kPa, Liquid | 0.07568
363.56 K, 18589 kPa, Liquid | 0.07561
363.85 K, 18555 kPa, Liquid | 0.07553
363.86 K, 18574 kPa, Liquid | 0.07558
381.79 K, 728 kPa, Fluid (supercritical or subcritical phases) | 0.01756
381.91 K, 529 kPa, Fluid (supercritical or subcritical phases) | 0.01757
381.98 K, 885 kPa, Fluid (supercritical or subcritical phases) | 0.0177
381.99 K, 883 kPa, Fluid (supercritical or subcritical phases) | 0.01771
382.06 K, 727 kPa, Fluid (supercritical or subcritical phases) | 0.0176
382.19 K, 530 kPa, Fluid (supercritical or subcritical phases) | 0.01766
382.26 K, 884 kPa, Fluid (supercritical or subcritical phases) | 0.01776
382.27 K, 885 kPa, Fluid (supercritical or subcritical phases) | 0.01778
382.29 K, 1304 kPa, Liquid | 0.05933
382.3 K, 1303 kPa, Liquid | 0.0594
382.3 K, 7889 kPa, Liquid | 0.06498
382.3 K, 7898 kPa, Liquid | 0.065
382.32 K, 1195 kPa, Fluid (supercritical or subcritical phases) | 0.01851
382.32 K, 1196 kPa, Fluid (supercritical or subcritical phases) | 0.01849
382.35 K, 727 kPa, Fluid (supercritical or subcritical phases) | 0.01767
382.35 K, 20108 kPa, Liquid | 0.07266
382.36 K, 20093 kPa, Liquid | 0.07261
382.37 K, 6276 kPa, Liquid | 0.06375
382.38 K, 6283 kPa, Liquid | 0.06377
382.38 K, 35584 kPa, Liquid | 0.0803
382.39 K, 35567 kPa, Liquid | 0.08024
382.4 K, 16804 kPa, Liquid | 0.07075
382.41 K, 16825 kPa, Liquid | 0.07099
382.42 K, 33043 kPa, Liquid | 0.07905
382.42 K, 33046 kPa, Liquid | 0.07909
382.44 K, 13721 kPa, Liquid | 0.06888
382.45 K, 13744 kPa, Liquid | 0.06889
382.46 K, 28331 kPa, Liquid | 0.07696
382.47 K, 4293 kPa, Liquid | 0.06211
382.47 K, 28334 kPa, Liquid | 0.07681
382.48 K, 1001 kPa, Fluid (supercritical or subcritical phases) | 0.01789
382.48 K, 4301 kPa, Liquid | 0.06219
382.49 K, 529 kPa, Fluid (supercritical or subcritical phases) | 0.01769
382.49 K, 1000 kPa, Fluid (supercritical or subcritical phases) | 0.01794
382.5 K, 2615 kPa, Liquid | 0.06083
382.51 K, 2614 kPa, Liquid | 0.06065
